# Key:
# ΔF508 CFTR [1] = target: T1, ΔF508 CFTR (Homo sapiens, UniProt P13569, DEL508-508); assay: Corrector activity, YFP halide (iodide) quenching assay in FRT cells expressing ΔF508 CFTR; assay type: cell-based; design: expressed in transfected cells; host or cells: Fischer rat thyroid (FRT) cells; conditions: FRT cells ΔF508 CFTR/YFP, 24 hours with compound at 37° C., forskolin and genistein; read-out: Corrector EC50
# Protocol: Fisher rat thyroid (FRT) cells stably expressing ΔF508 CFTR and a halide-sensitive variant of yellow fluorescent protein (YFP) were seeded into microtiter plates and allowed to grow for 24 hours at 37° C. and 5% CO2. See Pedemonte et al., J. Clin. Invest. […] Compounds in dimethylsulfoxide (DMSO) solution were pre-diluted into cell culture medium, the medium was removed from cells, and then fresh medium containing the compounds was applied. The cells were incubated for a further 24 hours at 37° C. and 5% CO2.
# Activity of CFTR was assayed by removing the medium, washing the cell monolayer with phosphate-buffered saline solution (PBS), and then applying PBS containing forskolin and genistein. After 30 min incubation at 37° C., the plates were placed in a fluorescence plate reader equipped with a reagent injector.
# Corrector activity was calculated as follows. Normalized endpoint fluorescence was calculated by dividing the endpoint fluorescence after iodide injection by the initial fluorescence reading and multiplication by 100. Corrector EC50 values were calculated from the activity vs. concentration data using a 4-parameter log fit. The bottom of the curve was constrained to zero activity (DMSO control) while the slope, EC50, and top of the curve were fitted to the data. The EC50 was determined as the concentration that corresponds to the inflection point of the fitted curve.
# ΔF508 CFTR [2] = target: T1, ΔF508 CFTR; assay: Potentiator activity, YFP halide (iodide) quenching assay in FRT cells expressing ΔF508 CFTR, 27° C. pre-incubation; assay type: cell-based; design: expressed in transfected cells; host or cells: Fischer rat thyroid (FRT) cells; conditions: FRT cells ΔF508 CFTR/YFP, 24 hours at 27° C., compound with forskolin 30 min
# Protocol: Fisher rat thyroid (FRT) cells stably expressing ΔF508 CFTR and a halide-sensitive variant of yellow fluorescent protein (YFP) were seeded into microtiter plates and allowed to grow for 24 hours at 37° C. and 5% CO2, as described above. The medium was replaced with fresh medium and the cells were incubated for a further 24 hours at 27° C. and 5% CO2 to increase the level of mutant CFTR at the cell surface.
# Compounds in DMSO solution were pre-diluted into phosphate-buffered saline solution (PBS) containing forskolin. Activity of CFTR was assayed by removing the medium, washing the cell monolayer with PBS, and then applying the compounds diluted in PBS containing forskolin. After 30 min of incubation at 37° C., the plates were placed in a fluorescence plate reader equipped with a reagent injector. After measuring an initial fluorescence value, iodide-containing buffer was injected and the decrease in fluorescence was followed at excitation and emission wavelengths of 485 and 530 nm, respectively.
# Potentiator activity was calculated as follows. Normalized endpoint fluorescence was calculated by dividing the endpoint fluorescence after iodide injection by the initial fluorescence reading and multiplication by 100. Potentiator EC50 values were calculated by the same method as corrector EC50 values.
# T1 sequence (P13569 with tags, fused parts or gaps DEL508-508): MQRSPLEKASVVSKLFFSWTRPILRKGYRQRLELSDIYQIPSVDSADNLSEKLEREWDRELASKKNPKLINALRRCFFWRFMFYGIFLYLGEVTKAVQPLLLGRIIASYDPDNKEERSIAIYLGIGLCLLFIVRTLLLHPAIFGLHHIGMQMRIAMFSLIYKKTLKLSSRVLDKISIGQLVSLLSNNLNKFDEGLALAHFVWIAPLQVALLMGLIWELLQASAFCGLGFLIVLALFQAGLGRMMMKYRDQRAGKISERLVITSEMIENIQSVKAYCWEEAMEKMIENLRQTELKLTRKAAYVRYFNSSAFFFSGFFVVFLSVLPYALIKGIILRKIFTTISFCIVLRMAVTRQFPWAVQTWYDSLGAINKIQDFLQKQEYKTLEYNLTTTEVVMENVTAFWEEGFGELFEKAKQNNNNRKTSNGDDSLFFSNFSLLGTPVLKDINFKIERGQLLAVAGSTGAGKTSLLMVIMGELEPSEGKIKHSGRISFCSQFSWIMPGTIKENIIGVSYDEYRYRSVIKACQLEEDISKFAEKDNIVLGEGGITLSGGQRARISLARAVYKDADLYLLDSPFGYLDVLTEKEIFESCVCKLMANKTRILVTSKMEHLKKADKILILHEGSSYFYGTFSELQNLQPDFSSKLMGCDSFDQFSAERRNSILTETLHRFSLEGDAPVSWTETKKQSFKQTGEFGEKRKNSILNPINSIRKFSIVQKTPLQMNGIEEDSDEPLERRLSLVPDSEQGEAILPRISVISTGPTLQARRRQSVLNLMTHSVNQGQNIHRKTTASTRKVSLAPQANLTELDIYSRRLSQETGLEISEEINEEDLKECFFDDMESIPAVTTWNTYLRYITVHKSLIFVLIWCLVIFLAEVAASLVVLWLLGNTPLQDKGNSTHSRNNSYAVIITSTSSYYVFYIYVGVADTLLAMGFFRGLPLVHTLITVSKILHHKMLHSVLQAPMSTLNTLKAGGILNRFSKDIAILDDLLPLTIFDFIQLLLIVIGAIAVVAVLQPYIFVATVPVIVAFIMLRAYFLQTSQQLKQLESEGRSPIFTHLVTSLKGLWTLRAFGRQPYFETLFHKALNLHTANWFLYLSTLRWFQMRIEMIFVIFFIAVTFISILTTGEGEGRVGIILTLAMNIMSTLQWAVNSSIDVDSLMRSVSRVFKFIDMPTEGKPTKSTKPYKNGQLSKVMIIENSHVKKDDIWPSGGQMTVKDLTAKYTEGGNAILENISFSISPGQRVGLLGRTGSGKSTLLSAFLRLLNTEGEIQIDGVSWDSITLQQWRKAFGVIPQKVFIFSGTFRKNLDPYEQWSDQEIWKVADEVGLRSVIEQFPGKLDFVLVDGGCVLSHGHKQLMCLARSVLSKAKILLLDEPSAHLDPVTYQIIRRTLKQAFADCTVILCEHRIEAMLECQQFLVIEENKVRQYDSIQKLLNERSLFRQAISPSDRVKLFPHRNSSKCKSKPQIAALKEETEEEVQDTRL
structure (smiles),measurement,setting,value
CCn1nc(Sc2ccc(F)cc2)c2c(N)ncnc21 [compound 208],EC50,ΔF508 CFTR [1],> 15 µM
same,EC50,ΔF508 CFTR [2],< 2 µM
CCn1nc(S(=O)(=O)c2cccc3ccccc23)c2c(N)ncnc21 [compound 212],EC50,ΔF508 CFTR [1],> 15 µM
same,EC50,ΔF508 CFTR [2],> 15 µM
CCn1cc(-c2ccc(Cl)cc2)c2c(N(C)C(C)=O)ncnc21 [compound 282],EC50,ΔF508 CFTR [1],> 15 µM
same,EC50,ΔF508 CFTR [2],> 15 µM
Cc1ccccc1Oc1nn(C(C)(C)C)c2ncnc(N)c12 [compound 185],EC50,ΔF508 CFTR [1],> 15 µM
same,EC50,ΔF508 CFTR [2],< 2 µM
CC(C)(C)n1nc(Sc2ccccc2)c2c(N)ncnc21 [compound 172],EC50,ΔF508 CFTR [1],> 15 µM
same,EC50,ΔF508 CFTR [2],< 2 µM
"CC(C)(C)OC(=O)N1CC(n2nc(Cc3cccc4ccccc34)c3c(N)ncnc32)C1 [Compound No. 297, 3-(4-Amino-3-naphthalen-1-ylmethyl-pyrazolo[3,4-d]pyrimidin-1-yl)-azetidine-1-carboxylic acid tert-butyl ester]",EC50,ΔF508 CFTR [1],> 15 µM
same,EC50,ΔF508 CFTR [2],2 to 5 µM
CCn1nc(Sc2cccc(Cl)c2)c2c(N)ncnc21 [compound 226],EC50,ΔF508 CFTR [1],> 15 µM
same,EC50,ΔF508 CFTR [2],< 2 µM
"CC(=O)N1CC(n2nc(-c3ccc(Cl)cc3)c3c(N)ncnc32)C1 [Compound No. 295, 1-{3-[4-Amino-3-(4-chloro-phenyl)-pyrazolo[3,4-d]pyrimidin-1-yl]-azetidin-1-yl}-ethanone]",EC50,ΔF508 CFTR [1],> 15 µM
same,EC50,ΔF508 CFTR [2],> 15 µM
CCn1nc([S+]([O-])c2ccccn2)c2c(N)ncnc21 (stereo not shown) [compound 353],EC50,ΔF508 CFTR [1],> 15 µM
same,EC50,ΔF508 CFTR [2],5 to 10 µM
CCn1nc(Sc2ccccc2F)c2c(N)ncnc21 [compound 217],EC50,ΔF508 CFTR [1],> 15 µM
same,EC50,ΔF508 CFTR [2],> 15 µM
Cc1ccc(F)c(Oc2nn(C(C)(C)C)c3ncnc(N)c23)c1 [compound 206],EC50,ΔF508 CFTR [1],> 15 µM
same,EC50,ΔF508 CFTR [2],> 15 µM
CC(C)(C)n1nc(Oc2cccc(F)c2)c2c(N)ncnc21 [compound 200],EC50,ΔF508 CFTR [1],> 15 µM
same,EC50,ΔF508 CFTR [2],< 2 µM
CC(C)(C)n1nc(Sc2ccccn2)c2c(N)ncnc21 [compound 245],EC50,ΔF508 CFTR [1],> 15 µM
same,EC50,ΔF508 CFTR [2],5 to 10 µM
Nc1ncnc2c1c(-c1ccc(Cl)cc1)nn2-c1nc2ccccc2o1 [compound 277],EC50,ΔF508 CFTR [1],> 15 µM
same,EC50,ΔF508 CFTR [2],> 15 µM
CCn1nc([S+]([O-])c2cccc(C(F)(F)F)c2)c2c(N)ncnc21 (stereo not shown) [compound 284],EC50,ΔF508 CFTR [1],> 15 µM
same,EC50,ΔF508 CFTR [2],> 15 µM
CN1CC(n2nc(Sc3ccccc3)c3c(N)ncnc32)C1 [compound 383],EC50,ΔF508 CFTR [1],> 15 µM
CC(C)N1CC(n2nc(Oc3cccc(Cl)c3)c3c(N)ncnc32)C1 [compound 402],EC50,ΔF508 CFTR [1],> 15 µM
Nc1ncnc2c1c(Oc1ccccc1)nn2C1CCOC1 (stereo not shown) [compound 359],EC50,ΔF508 CFTR [1],> 15 µM
CCn1nc(Oc2cccc(Cl)c2)c2c(N)ncnc21 [compound 260],EC50,ΔF508 CFTR [1],> 15 µM
CCn1c(C)c(-c2ccc(Cl)cc2)c2c(N)ncnc21 [compound 401],EC50,ΔF508 CFTR [1],2 to 5 µM
CC(=O)c1ccc(-c2nn(C(C)(C)C)c3ncnc(N)c23)cc1 [compound 125],EC50,ΔF508 CFTR [1],> 15 µM
CC(C)(C)n1nc(-c2ccc(Cl)cc2)c2c(Nc3ncccn3)ncnc21 [compound 235],EC50,ΔF508 CFTR [1],> 15 µM
CN1CCC(C(=O)Nc2ncnc3c2c(-c2ccc(Cl)cc2)nn3C(C)(C)C)C1 (stereo not shown) [compound 363],EC50,ΔF508 CFTR [1],> 15 µM
CC(C)(C)n1nc(-c2ccc(Cl)cc2)c2c(NC(=O)NCc3ccccc3)ncnc21 [compound 231],EC50,ΔF508 CFTR [1],> 15 µM
Nc1ncnc2c1c([S+]([O-])c1cccc(Cl)c1)nn2C1CNC1 (stereo not shown) [compound 418],EC50,ΔF508 CFTR [1],> 15 µM
CCn1nc(Sc2ccc(C)cc2)c2c(N)ncnc21 [compound 255],EC50,ΔF508 CFTR [1],> 15 µM
Nc1ncnc2c1c(-c1ccc(Cl)cc1)nn2C(=O)NCc1ccccc1 [compound 215],EC50,ΔF508 CFTR [1],> 15 µM
"CC(C)(C)n1nc(-c2ccc(Cl)cc2)c2c(NC(=O)C(=O)c3ccccc3)ncnc21 [Compound No. 395, N-[1-tert-Butyl-3-(4-chloro-phenyl)-1H-pyrazolo[3,4-d]pyrimidin-4-yl]-2-oxo-2-phenyl-acetamide]",EC50,ΔF508 CFTR [1],5 to 10 µM
CCOC(=O)N1CC(n2nc(Oc3cccc(Cl)c3)c3c(N)ncnc32)C1 [compound 403],EC50,ΔF508 CFTR [1],> 15 µM
Nc1ncnc2c1c(-c1ccc(Cl)cc1)nn2CCc1ccccc1 [compound 243],EC50,ΔF508 CFTR [1],> 15 µM
CC(C)(C)C1N=C(c2ccc(Cl)cc2)c2c(NC(=O)C3CCC3)ncnc21 (stereo not shown) [compound 192],EC50,ΔF508 CFTR [1],2 to 5 µM
CN1CC[C@H](n2nc(-c3ccc(Cl)cc3)c3c(N)ncnc32)C1 [compound 379],EC50,ΔF508 CFTR [1],> 15 µM
CC(C)(C)C(=O)Nc1ncnc2c1cnn2C(C)(C)C [compound 389],EC50,ΔF508 CFTR [1],> 15 µM
CCn1c(C)c(-c2ccc(Cl)cc2)c2c(NC(=O)C3CCCC3)ncnc21 [compound 365],EC50,ΔF508 CFTR [1],2 to 5 µM
CCn1nc(Sc2ccncc2)c2c(N)ncnc21 [compound 249],EC50,ΔF508 CFTR [1],> 15 µM
CC(C)C(=O)Nc1ncnc2c1c(Oc1cccc(Cl)c1)nn2C(C)(C)C [compound 369],EC50,ΔF508 CFTR [1],2 to 5 µM
CCNC(=O)Nc1ncnc2c1c(Cc1cccc(Cl)c1)nn2C1CN(C(=O)NCC)C1 [compound 424],EC50,ΔF508 CFTR [1],> 15 µM
CC(=O)Nc1ncnc2c1c(-c1ccc(Cl)cc1)cn2C(C)(C)C [compound 372],EC50,ΔF508 CFTR [1],2 to 5 µM
Nc1ncnc2c1c(Sc1ccccc1)nn2C1CNC1 [compound 416],EC50,ΔF508 CFTR [1],> 15 µM
"CCn1nc(N(C)c2ccccc2)c2c(N)ncnc21 [Compound No. 248, 1-Ethyl-N^3-methyl-N^3-phenyl-1H-pyrazolo[3,4-d]pyrimidine-3,4-diamine]",EC50,ΔF508 CFTR [1],> 15 µM
CC(C)C(=O)Nc1ncnc2c1c(-c1ccc(Cl)cc1)cn2C(C)(C)C [compound 366],EC50,ΔF508 CFTR [1],> 15 µM
CC(C)C(=O)C(=O)Nc1ncnc2c1c(-c1ccc(Cl)cc1)nn2C(C)(C)C [compound 394],EC50,ΔF508 CFTR [1],> 15 µM
CN1CCC(n2nc(-c3ccc(Cl)cc3)c3c(N)ncnc32)CC1 [compound 378],EC50,ΔF508 CFTR [1],> 15 µM
CC(C)(C)n1cc(-c2ccc(Cl)cc2)c2c(NC(=O)C3CCC3)ncnc21 [compound 391],EC50,ΔF508 CFTR [1],2 to 5 µM
CCC(=O)Nc1ncnc2c1c(Oc1cccc(Cl)c1)nn2C(C)(C)C [compound 339],EC50,ΔF508 CFTR [1],5 to 10 µM
CC(C)C(=O)Nc1ncnc2c1cnn2C(C)(C)C [compound 390],EC50,ΔF508 CFTR [1],> 15 µM
CC(=O)N1CC(n2nc(Oc3cccc(Cl)c3)c3c(N)ncnc32)C1 [compound 380],EC50,ΔF508 CFTR [1],> 15 µM
Nc1ncnc2c1c(-c1ccc(Cl)cc1)nn2-c1ncccn1 [compound 251],EC50,ΔF508 CFTR [1],> 15 µM
"Cc1ccc(-c2nn(-c3ncccn3)c3ncnc(N)c23)cc1 [Compound No. 229, 1-Pyrimidin-2-yl-3-p-tolyl-1H-pyrazolo[3,4-d]pyrimidin-4-ylamine]",EC50,ΔF508 CFTR [1],> 15 µM
"CC(C)(C)n1nc(-c2ccc(Cl)cc2)c2c(NC(=O)Nc3ccccc3)ncnc21 [Compound No. 230, 1-[1-tert-Butyl-3-(4-chloro-phenyl)-1H-pyrazolo[3,4-d]pyrimidin-4-yl]-3-phenyl-urea]",EC50,ΔF508 CFTR [1],> 15 µM
CCNC(=O)Nc1ncnc2c1c(-c1ccc(Cl)cc1)nn2C(C)(C)C [compound 239],EC50,ΔF508 CFTR [1],> 15 µM
"Cc1ccc(-c2nn(C(C)(C)C)c3ncnc(Nc4ncccn4)c23)cc1 [Compound No. 234, (1-tert-Butyl-3-p-tolyl-1H-pyrazolo[3,4-d]pyrimidin-4-yl)-pyrimidin-2-yl-amine]",EC50,ΔF508 CFTR [1],> 15 µM
CC(C)(C)n1nc(-c2ccc(O)c3ccccc23)c2c(N)ncnc21 [compound 164],EC50,ΔF508 CFTR [1],> 15 µM
CC(C)C(=O)N(C(=O)C(C)C)c1ncnc2c1c(Br)nn2C(C)(C)C [compound 426],EC50,ΔF508 CFTR [1],5 to 10 µM
CC(C)(C)n1nc(Br)c2c(N(C(=O)c3ccccc3)C(=O)c3ccccc3)ncnc21 [compound 425],EC50,ΔF508 CFTR [1],2 to 5 µM

# Reference: patent US20100331297A1, “MODULATION OF PROTEIN TRAFFICKING” (FOLDRX PHARMACEUTICALS, INC., priority 2007, published 2010)
